Results: PubChem BioAssay (NCI)
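Following 48 hours of exposure in 96-well plates, responses at five concentrations were used to interpolate endpoints linearly. TGI marks complete inhibition of growth.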

Experiments:
Assay in all cases: DTP human tumour cell line panel, 48 h
MDA-MB-435 = tested on: MDA-MB-435
MDA-N = tested on: MDA-N
PC-3 prostate = tested on: PC-3 prostate
T-47D breast = tested on: T-47D breast
RXF-631 renal = tested on: RXF-631 renal
A498 renal = tested on: A498 renal
SN12K1 renal = tested on: SN12K1 renal

C=C1C(C[C@@H]2O[C@H]3C[C@H]4O[C@@]5(C[C@@H]6O[C@]7(C[C@H](C)[C@@H]8O[C@@H]9CC(C(O)CO)O[C@@H]9C[C@@H]8O7)C[C@H](C)[C@@H]6O5)C[C@H]4O[C@H]3[C@H](C)[C@H]2O)O[C@@H](CC[C@@H]2O[C@@H](CC[C@@]34CC5O[C@H]6C(O[C@H]7CC[C@H](CC(=O)OC)O[C@@H]7[C@@H]6O3)[C@H]5O4)CC2=C)C[C@H]1C (some centres not stated) showed a TGI (MDA-MB-435) of 0.183 nM, a TGI (MDA-N) of 0.124 nM and a TGI (PC-3 prostate) greater than 1000 nM. It also gave a TGI (T-47D breast) greater than 1000 nM.
For COc1cccc(NC(=O)N/C(=C/c2ccc(N(CCC#N)CCC#N)cc2)NC(=O)c2cc([N+](=O)[O-])ccc2Cl)c1, the TGI (RXF-631 renal) was greater than 100000 nM.
In the case of O=S(=O)(O)c1ccc(N=Nc2ccc(N=Nc3ccc(/C=C/c4ccc(N=[N+]([O-])c5ccc(/C=C/c6ccc(N=Nc7ccc(N=Nc8ccc(S(=O)(=O)O)cc8)c8ccccc78)cc6S(=O)(=O)O)c(S(=O)(=O)O)c5)cc4S(=O)(=O)O)c(S(=O)(=O)O)c3)c3ccccc23)cc1, the TGI (A498 renal) is reported as greater than 100000 nM and the TGI (SN12K1 renal) is reported as greater than 100000 nM.
